Test results taken from patent US10766928B2, “Targeted conformationally-constrained kinked endosomal disrupting peptides” (priority 2012, dated 2020).
Values after ≈ are worked out from the molar mass of the structure shown. Like-named read-outs stand apart in the source and are kept apart here. Non-standard residues stand in square brackets, D forms with d. Residues, ends and D or L forms follow the SMILES beside them. *: point of attachment. Pentanoyl(5-NH-cholesteryl) = CC(C)CCC[C@@H](C)[C@H]1CC[C@H]2[C@@H]3CC=C4C[C@@H](NCCCCC(=O)*)CC[C@]4(C)[C@H]3CC[C@]12C; Cholesteryloxycarbonyl = CC(C)CCC[C@@H](C)[C@H]1CC[C@H]2[C@@H]3CC=C4C[C@@H](OC(=O)*)CC[C@]4(C)[C@H]3CC[C@]12C; PEG3 = NCCOCCOCCOCCC(=O)O; Aib = CC(C)(N)C(=O)O; Ahx = NCCCCCC(=O)O; βAla = NCCC(=O)O

What was measured:
[1] = Thermodynamic solubility in PBS (pH 7.4); assay type: physicochemical; details: phosphate buffered saline
Source text: Values in parentheses represent 95% confidence intervals. N.D., not determined.
Measurements represent duplicate or more replicates, with active peptides subjected to multiple replicates. ND: not determined. The peptide was non-toxic and soluble in cell culture medium at this concentration.

[2] = system: endosomes of Jurkat lymphocytes; test: Endosome disruption in Jurkat lymphocytes: release of carboxyfluorescein from disulfide probe Compound 2, flow cytometry; details: for Efficacy (% of max. 1): % change in cellular fluorescence relative to maximal response of Compound 1 (100%); for Efficacy (% of max. 1) / Efficacy (% of 1): Jurkat; for Efficacy (% of 1): % of the effect of compound 1, calculated span of dose-response curve, ± standard deviation
Description: The effects of the compounds of the invention on human Juikat leukemia cells were evaluated using flow cytometry-based assays of potency, efficacy, and toxicity. […] Analysis of flow cytometry data by non-linear regression was used to determine IC50 values for potency with the efficacy expressed as a percentage. […] Dose-dependent effects on cellular viability after 48 h at 37° C. in culture were also measured by flow cytometry.
The # represents the compound number in accordance with Tables A, B, and C. Concentrations of compound stock solutions were determined by absorbance measurements at 280 nm. Efficacy was determined as % change in cellular fluorescence relative to the maximal response of Compound 1, defined as 100%. Potencies and efficacies in Jurkat lymphocytes were measured by flow cytometry after treatment of cells with the compounds listed and the fluorescent probe Compound 2 (2.5 μM) for 14 hours. Toxicity to this cell line was determined by flow cytometry analysis of light scattering and counterstaining with PI after treatment for 48 h at 37° C. in culture. […] N.D., not determined.
Cells were treated with fluorescent molecular probe Compound 2 (2.5 μM) and endosome disruptors for 14 hours at 37° C. Enhanced cellular fluorescence resulting from release of the pH-sensitive fluorophore Compound 3 into the cytoplasm was quantified by flow cytometry.
Natural amino acids are represented by single letter codes. Codes for non-standard elements are as follows: Ch1: (3β-Cholest-5-en-3-yl-ammonio)pentanoyl; Ch2: (Cholester-3-yl)oxy-βAla-βAla; X: ε-Ahx; U: Aib; PB: Pacific Blue fluorophore. O: 3-(2-(2-(2-aminoethoxy)ethoxy)ethoxy)propanyl.

[3] = pH 7.4, Table 3, PBS pH 7.4, 24 h at 22° C., read-out: Solubility
[4] = read-out: Potency, Table 2, EC50 ± standard deviation, Jurkat lymphocytes, disulfide-linked fluorescent probe (2.5 μM), 14 h

Molecule | solubility thermodynamic at 24 h [1, 3] | Efficacy (% of max. 1) ([2]; Table 1, 14 hours) | EC50 [2, 4] | Efficacy (% of 1) ([2]; Table 2, 14 h) | EC50 ([2]; read-out: Potency (EC50), Table 1, Jurkat lymphocytes, probe Compound 2 (2.5 μM), 14 hours, 95% confidence interval in neighbouring cell) | solubility thermodynamic at 24 h ([1]; pH 7.4, Table 1, PBS pH 7.4, 24 hours at 22° C., ±S.D., read-out: Solubility (aq.)) | Endosome disruption activity (in words) ([2]; Jurkat endosome disruption assay) | EC50 ([2]; 14 h)
CC(C)[C@H](NC(=O)[C@@H](NC(=O)[C@@H]1CCCN1C(=O)[C@@H]1CCCN1C(=O)[C@H](Cc1c[nH]c2ccccc12)NC(=O)[C@H](C)NC(=O)[C@H](C)NC(=O)[C@H](Cc1c[nH]c2ccccc12)NC(=O)[C@H](Cc1c[nH]c2ccccc12)NC(=O)C(C)(C)NC(=O)C(C)(C)NC(=O)C(C)(C)NC(=O)C(C)(C)N)C(C)C)C(N)=O [Compound 47] (H-[Aib][Aib][Aib][Aib]WWAAWPPVV-NH2) | 63 ± 3 µM (≈ 91.4 µg/mL) | <<50% | > 15 µM |  |  |  |  | 
CC(C)[C@H](NC(=O)[C@@H]1CCCN1C(=O)[C@@H]1CCCN1C(=O)[C@H](Cc1c[nH]c2ccccc12)NC(=O)[C@H](Cc1ccc(O)cc1)NC(=O)[C@H](C)NC(=O)[C@H](Cc1c[nH]c2ccccc12)NC(=O)[C@H](Cc1c[nH]c2ccccc12)NC(=O)C(C)(C)NC(=O)C(C)(C)NC(=O)C(C)(C)NC(=O)C(C)(C)N)C(=O)N[C@@H](C)C(N)=O [Compound 43] (H-[Aib][Aib][Aib][Aib]WWAYWPPVA-NH2) | 40 ± 2 µM (≈ 60.6 µg/mL) | 64% | 9 ± 3 µM | 57 ± 7% | 10 µM |  |  | 
CC(C)[C@H](NC(=O)[C@@H](NC(=O)[C@@H]1CCCN1C(=O)[C@@H]1CCCN1C(=O)[C@H](Cc1c[nH]c2ccccc12)NC(=O)[C@H](Cc1ccc(O)cc1)NC(=O)[C@H](C)NC(=O)[C@H](Cc1c[nH]c2ccccc12)NC(=O)[C@H](C)NC(=O)C(C)(C)NC(=O)C(C)(C)NC(=O)C(C)(C)NC(=O)C(C)(C)N)C(C)C)C(N)=O [Compound 45] (H-[Aib][Aib][Aib][Aib]AWAYWPPVV-NH2) | 86 ± 5 µM (≈ 123 µg/mL) | <<50% |  | <10% |  |  |  | 
Ac-SSAWWSYWPPVA-NH2 [Compound 39, reference compound] | 137 ± 8 µM | <<50% |  | <2% |  | 173 ± 11 µM | devoid of biological activity | 
CC(C)CCC[C@@H](C)[C@H]1CC[C@H]2[C@@H]3CC=C4C[C@@H](OC(=O)NCCC(=O)NCCC(=O)N[C@@H](CCC(=O)O)C(=O)N[C@@H](CCC(=O)O)C(=O)NCCOCCOCCOCCC(=O)NCCOCCOCCOCCC(=O)NC(C)(C)C(=O)NC(C)(C)C(=O)NC(C)(C)C(=O)NC(C)(C)C(=O)N[C@@H](Cc5c[nH]c6ccccc56)C(=O)N[C@@H](Cc5ccc(O)cc5)C(=O)N[C@@H](C)C(=O)N[C@@H](Cc5c[nH]c6ccccc56)C(=O)N[C@@H](Cc5ccc(O)cc5)C(=O)N[C@@H](C)C(=O)N[C@@H](Cc5c[nH]c6ccccc56)C(=O)N[C@@H](Cc5ccc(O)cc5)C(=O)N5CCC[C@H]5C(=O)N5CCC[C@H]5C(=O)N[C@H](C(=O)N[C@H](C(N)=O)C(C)C)C(C)C)CC[C@]4(C)[C@H]3CC[C@]12C [Compound 84, Ch2-EEOOUUUUWYAWYAWYPPVV-NH2] ({Cholesteryloxycarbonyl-βAla-βAla}-EE[PEG3][PEG3][Aib][Aib][Aib][Aib]WYAWYAWYPPVV-NH2) | 21 ± 1 µM (≈ 66.4 µg/mL) |  |  |  |  |  |  | 
CC(C)CCC[C@@H](C)[C@H]1CC[C@H]2[C@@H]3CC=C4C[C@@H](NCCCCC(=O)NCCC(=O)N[C@@H](CCC(=O)O)C(=O)N[C@@H](CCC(=O)O)C(=O)NCCCCCC(=O)NC(C)(C)C(=O)NC(C)(C)C(=O)NC(C)(C)C(=O)N[C@@H](Cc5c[nH]c6ccccc56)C(=O)N[C@@H](Cc5c[nH]c6ccccc56)C(=O)N[C@@H](C)C(=O)N[C@@H](Cc5ccc(O)cc5)C(=O)N[C@@H](Cc5c[nH]c6ccccc56)C(=O)N[C@@H](C)C(=O)N5CCC[C@H]5C(=O)N[C@H](C(=O)N[C@@H](C)C(N)=O)C(C)C)CC[C@]4(C)[C@H]3CC[C@]12C [Compound 16, R = BEEXUUUWWAYWAPVA-CONH2] ({Pentanoyl(5-NH-cholesteryl)-βAla}-EE[Ahx][Aib][Aib][Aib]WWAYWAPVA-NH2) |  |  |  |  |  |  |  | 1.6 µM
